Results on four compounds are retold here after patent US7741124B2, “Detection procedures for fibrinogen and/or fibrinogen derivatives” (priority 2003, dated 2010).

Like-named read-outs stand apart in the source and are kept apart here.

Common to all, as to format: biochemical
Experiment [1] relates to heparin. Nature of the experiment: Neutralization of heparin in plasma by Polybrene in the FIFTA. How it is done:
P-Pool supplemented with 0-80 IU/ml heparin was analyzed in the FIFTA. The FIFTA-reagent contained 200 mIU/ml thrombin, 6% BSA-PBS and 0, 50, 100, 200, 400, 800, or 1600 μg/ml Polybrene® (PB, hexadimethrinebromide).
25 μl 0-75 mg/ml Polybrene® in aqua dest. were added to 50 μl P-Pool or to 50 μl P-Pool, that had been supplemented with 100 IU/ml heparin. Then 100 μl 200 miU/ml thrombin in 6% BSA-PBS, 400 μg/ml PB were added and the increase in absorbance at 405 nm was determined.
50 μl P-Pool with 0-80 IU/ml heparin were incubated with 100 μl FIFTA-reagent without thrombin, that contained 0, 400, 800, or 1600 μg/ml PB. The increase in absorbance at 405 nm was determined.

For experiment [2], the target named is T1, fibrinogen (Homo sapiens, UniProt P02671+P02675+P02679).
T1 construct: pooled patient plasma (P-Pool, n=32 single plasmas); from tissue; host or cells: pooled citrated patient plasma (P-Pool, Fbgen-Pool-Plasma)
T1 sequence (P02671 20-644 isoform P02671-2 limits assumed): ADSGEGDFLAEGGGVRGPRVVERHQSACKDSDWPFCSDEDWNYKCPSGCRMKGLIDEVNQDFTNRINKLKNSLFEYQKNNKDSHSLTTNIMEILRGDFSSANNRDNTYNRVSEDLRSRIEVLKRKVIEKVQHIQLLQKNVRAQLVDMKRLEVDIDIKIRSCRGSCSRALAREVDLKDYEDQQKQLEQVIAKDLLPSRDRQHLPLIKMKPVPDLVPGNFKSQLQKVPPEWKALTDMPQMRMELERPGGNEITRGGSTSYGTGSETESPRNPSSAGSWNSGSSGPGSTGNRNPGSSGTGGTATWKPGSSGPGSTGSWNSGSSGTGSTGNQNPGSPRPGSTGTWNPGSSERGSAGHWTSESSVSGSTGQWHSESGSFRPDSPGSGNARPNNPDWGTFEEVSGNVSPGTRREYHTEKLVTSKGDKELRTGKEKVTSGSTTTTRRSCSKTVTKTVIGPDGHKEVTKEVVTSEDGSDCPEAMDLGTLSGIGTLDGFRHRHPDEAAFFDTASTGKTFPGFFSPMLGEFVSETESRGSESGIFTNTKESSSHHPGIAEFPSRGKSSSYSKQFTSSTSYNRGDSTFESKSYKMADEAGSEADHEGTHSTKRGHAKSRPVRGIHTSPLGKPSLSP
T1 sequence (P02675 31-491): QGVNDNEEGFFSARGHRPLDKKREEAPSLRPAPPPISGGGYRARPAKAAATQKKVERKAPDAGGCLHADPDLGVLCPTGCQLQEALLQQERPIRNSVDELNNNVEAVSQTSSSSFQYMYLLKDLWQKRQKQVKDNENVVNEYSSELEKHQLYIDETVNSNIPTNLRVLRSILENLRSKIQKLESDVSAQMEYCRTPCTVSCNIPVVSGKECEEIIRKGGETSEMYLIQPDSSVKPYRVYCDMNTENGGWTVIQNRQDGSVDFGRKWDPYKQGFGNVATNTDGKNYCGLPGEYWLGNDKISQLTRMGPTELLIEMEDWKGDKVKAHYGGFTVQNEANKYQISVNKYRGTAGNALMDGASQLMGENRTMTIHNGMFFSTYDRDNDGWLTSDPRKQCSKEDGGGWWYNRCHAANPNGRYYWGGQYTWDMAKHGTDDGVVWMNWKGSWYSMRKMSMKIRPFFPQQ
T1 sequence (P02679 27-437 isoform P02679-2 limits assumed): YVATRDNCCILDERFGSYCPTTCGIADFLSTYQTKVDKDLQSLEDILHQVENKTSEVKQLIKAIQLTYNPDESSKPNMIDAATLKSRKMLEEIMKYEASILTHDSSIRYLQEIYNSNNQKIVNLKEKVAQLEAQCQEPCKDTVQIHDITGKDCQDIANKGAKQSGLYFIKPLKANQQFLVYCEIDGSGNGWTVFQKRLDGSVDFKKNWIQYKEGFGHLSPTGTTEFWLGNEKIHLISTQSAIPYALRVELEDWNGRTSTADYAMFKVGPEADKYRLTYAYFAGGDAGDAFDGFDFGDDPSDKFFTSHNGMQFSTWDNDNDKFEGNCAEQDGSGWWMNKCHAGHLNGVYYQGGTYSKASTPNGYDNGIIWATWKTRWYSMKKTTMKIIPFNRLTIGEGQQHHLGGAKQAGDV
Nature of the experiment: FIFTA of chloramine-T oxidized / EDTA-supplemented plasma. The method, then:
The absorption at 405 nm is immediately measured (base value) and exactly after 5 min, if the reaction is performed at room temperature (23° C.). If the reaction is performed at 37° C., the second value is measured after 2 min. A microtiterplate reader (Milenia, DPC, Los Angeles, USA) is used. The increase in absorption (ΔA) is determined and the results are standardized against a pooled plasma of known, preferably of 100% of norm, fibrinogen-activity (Table 1).
(§1) 25 μl P-Pool or P-Pool supplemented with 8.6 mM (3.2 g/l) EDTA were incubated with 25 μl 0-89 mM chloramine-T® in PBS for 60 min at RT. Then the FIATA and the FIFTA were performed. For the FIATA, 25 μl PBS were added and the absorbance at 405 nm was determined (base value). 50 μl 4.4 mM vancomycin in PBS were added and after 1 min (RT) the absorbance at 405 nm was determined again (Table 1). […] 100% control=P-Pool without oxidant.
(§2) 25 μl P-Pool was incubated with 25 μl PBS or with 25 μl 2 mM CT in PBS. After 60 min RT, 25 μl 0-172 mM EDTA in PBS was added. After 5 min RT the FIATA and the FIFTA were performed as indicated in 2.7.

Experiment [3] concerns fibrinogen. Nature of the experiment: FIATA (vancomycin reactivity) of chloramine-T oxidized / EDTA-supplemented plasma. The note with it: EDTA at concentrations of 50-100 mM. How it is done: To 25 μl plasma 50 μl PBS are added and the absorbance (405 nm) is determined (base value). Then 50 μl 4.4 mM vancomycin in PBS are added. The absorbance at 405 nm is determined after 2 min, if the reaction is performed at room temperature (23° C.). If the reaction is performed at 37° C., the second value is determined after 1 min. A microtiterplate reader (Milenia, DPC, Los Angeles, USA) is used. The increase in absorption (ΔA) is determined and the results are standardized against a pooled plasma of known, preferably of 100% of norm, fibrinogen-concentration, and against 0.9% NaCl (zero-value of turbidity) (Table 2).
as §1, §2

Experiment [4] concerns the target T2, fibrin (Homo sapiens, UniProt P02671+P02675+P02679).
T2 construct: The FIFTA imitates the physiological conversion of fibrinogen to fibrin; from tissue; host or cells: pooled citrated patient plasma (P-Pool), clotted in the well with thrombin reagent for 30 min
T2 sequence (P02671 36-629 limits assumed): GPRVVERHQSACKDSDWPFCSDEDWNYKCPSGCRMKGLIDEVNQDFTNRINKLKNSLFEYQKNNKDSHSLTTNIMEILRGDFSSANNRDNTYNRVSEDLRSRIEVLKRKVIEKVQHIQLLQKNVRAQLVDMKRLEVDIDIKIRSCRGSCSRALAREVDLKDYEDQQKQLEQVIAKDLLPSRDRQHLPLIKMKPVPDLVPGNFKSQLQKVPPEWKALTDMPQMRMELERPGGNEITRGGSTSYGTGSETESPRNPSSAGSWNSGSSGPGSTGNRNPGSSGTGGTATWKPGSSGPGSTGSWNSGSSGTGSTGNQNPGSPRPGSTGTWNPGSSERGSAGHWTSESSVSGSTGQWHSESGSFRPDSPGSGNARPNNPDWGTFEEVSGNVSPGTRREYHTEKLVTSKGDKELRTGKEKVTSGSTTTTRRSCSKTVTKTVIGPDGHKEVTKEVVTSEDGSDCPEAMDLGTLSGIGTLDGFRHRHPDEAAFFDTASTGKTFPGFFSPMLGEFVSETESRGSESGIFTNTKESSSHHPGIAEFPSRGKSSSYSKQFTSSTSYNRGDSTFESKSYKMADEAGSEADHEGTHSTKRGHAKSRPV
T2 sequence (P02675 45-491 limits assumed): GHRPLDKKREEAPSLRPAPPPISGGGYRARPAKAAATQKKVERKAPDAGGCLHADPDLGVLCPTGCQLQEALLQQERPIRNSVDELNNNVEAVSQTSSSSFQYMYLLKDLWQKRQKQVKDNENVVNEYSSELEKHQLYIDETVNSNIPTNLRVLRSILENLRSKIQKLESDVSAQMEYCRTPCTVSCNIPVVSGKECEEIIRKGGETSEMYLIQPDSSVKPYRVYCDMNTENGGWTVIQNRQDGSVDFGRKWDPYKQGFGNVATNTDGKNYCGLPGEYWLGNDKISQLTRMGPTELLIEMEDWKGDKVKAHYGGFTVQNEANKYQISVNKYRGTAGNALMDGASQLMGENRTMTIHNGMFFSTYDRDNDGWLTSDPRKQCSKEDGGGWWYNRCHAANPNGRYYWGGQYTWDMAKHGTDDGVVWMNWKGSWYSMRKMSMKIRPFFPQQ
T2 sequence (P02679 27-437 isoform P02679-2 limits assumed): T1 sequence (P02679 27-437 isoform P02679-2 limits assumed)
Nature of the experiment: Fibrin dissolution by arginine. How it is done: 50 μl P-Pool were incubated with 100 μl FIFTA-reagent.

The subject of experiment [5] is thrombin/fibrinogen interaction. Nature of the experiment: Inhibition of fibrin generation by arginine (FIFTA turbidity). The note with it: for IC50: read-out: arginine conc. at halfmaximal turbidity increase. The method, then:
The turbidity increase was calculated by subtracting the basal absorbance from the absorbance generated by thrombin (addition of 100 μl FIFTA-reagent without thrombin results into an approximate increase of absorbance of 100 mA compared to the absorbance of 50 μl sample). c) 50 μl P-Pool were incubated with 100 μl FIFTA-reagent.

In experiment [6] the target is T3, thrombin (Bos taurus, UniProt P00735).
T3 construct: 100 μl 200 mIU/ml thrombin in 6% BSA-PBS (without Polybrene®)
Nature of the experiment: Inhibitory time point 50% (ITP50) of 10 IU/ml heparin-thrombin interaction. The note with it: 133 mIU/ml thrombin, RT. The method, then:
50 μl P-Pool were incubated with 100 μl 200 miU/ml thrombin in 6% BSA-PBS (without Polybrene®). At 0 min (prior to thrombin addition) and 0.5-11 min reaction time (at RT) 10 μl 160 IU/ml heparin in 6% BSA-PBS was added (final heparin conc. in plasma+thrombin reagent=10 IU/ml; this heparin conc. increased the absorbance by 20 mA; all test results were corrected by this heparin induced turbidity increase). The turbidity increase at 405 nm was determined immediately after each heparin addition step and as a function of incubation time.
To determine the heparin addition time point (at RT) that is needed to decrease the 5 min, 10 min, 15 min or 20 min turbidity increase by 50% (inhibitory time point 50%=ITP), 50 μl P-Pool were incubated with 100 μl 200 mIU/ml thrombin in 6% BSA-PBS (without Polybrene®). After 0 s (prior to thrombin addition) and 10-140 s (in 10 s intervals) 10 μl 160 IU/ml heparin in 6% BSA-PBS were added. The turbidity increase at 405 nm as a function of incubation time (3-20 min) was determined.

As for hexadimethrinebromide [Polybrene®], the “plasmatic heparin concentration neutralized” value in experiment [1] (400 μg/ml Polybrene in FIFTA-reagent) is given as “up to 20 IU/ml”. Also, in experiment [1] (1 part PB, includes 400 μg/ml PB of FIFTA-reagent), the “PB needed for neutralization of 1 part of 100 IU/ml heparinized plasma” value amounted to 26 mg/mL. Moreover, the “PB concentration that completely antagonizes 100 IU/ml heparin” value in experiment [1] (25 μl PB added to 50 μl plasma) is at least 50 mg/mL.

Consider `O=C(O)CN(CCN(CC(=O)O)CC(=O)O)CC(=O)O` [EDTA], for which the “decrease of FIFTA activity” value in experiment [2] (EDTA at concentrations >5 mmol/l, 0 mM or 2 mM oxidized samples) was “about 50%”. Moreover, in experiment [2] (addition of 8.6 mM EDTA, independent of oxidant concentration), the FIFTA decrease result was “about 50%”. Besides, the “decrease of FIATA result” value in experiment [3] was 10-20%.

Take `N=C(N)NCCC[C@H](N)C(=O)O` [arginine]: in experiment [4] (477 mM arginine added at 12 min or 30 min reaction time point, RT), the “time to halfmaximal decrease of ΔA” value was 30 min. Also, in experiment [4] (arginine incubation >100 min), the “maximal ΔA that remains refractory to clearing” value is reported as “about 30%”. Further, in experiment [5] (16 mM arginine), the “increase of the turbidity increase” value is on record as “about 20%”. For the same compound, in experiment [5] (arginine acts in the first 4 min (RT) of thrombin/fibrinogen interaction), the “final arginine conc. that completely inhibits turbidity increase” value is listed as at least 250 mM. Moreover, the “time window in which arginine can inhibit turbidity increase” value in experiment [5] (final arginine conc. ≧250 mM, RT (FIG. 16d)) was at most 3 min. Besides, the IC50 in experiment [5] (added at the 7 min reaction time point) amounted to 94 mM; in experiment [5] (arginine acts since the begin of thrombin action) it was 62.5 mM.

Take thrombin: in experiment [6], the “time in which about 50% of plasmatic fibrinogen is converted” value is on record as “approximately 30 seconds”.
